Blank lines part the entries; values can stand above or below the molecule they belong to. Active and inactive are the calls of the source.
Tests used:
Hexokinase HKDC1 = target: T1, Hexokinase HKDC1 (Homo sapiens, UniProt Q2TB90); experiment: HKDC1 hexokinase inhibitors, dose response, biochemical, W721R variant (AID 504729); assay type: functional
T1 sequence (Q2TB90 whole entry): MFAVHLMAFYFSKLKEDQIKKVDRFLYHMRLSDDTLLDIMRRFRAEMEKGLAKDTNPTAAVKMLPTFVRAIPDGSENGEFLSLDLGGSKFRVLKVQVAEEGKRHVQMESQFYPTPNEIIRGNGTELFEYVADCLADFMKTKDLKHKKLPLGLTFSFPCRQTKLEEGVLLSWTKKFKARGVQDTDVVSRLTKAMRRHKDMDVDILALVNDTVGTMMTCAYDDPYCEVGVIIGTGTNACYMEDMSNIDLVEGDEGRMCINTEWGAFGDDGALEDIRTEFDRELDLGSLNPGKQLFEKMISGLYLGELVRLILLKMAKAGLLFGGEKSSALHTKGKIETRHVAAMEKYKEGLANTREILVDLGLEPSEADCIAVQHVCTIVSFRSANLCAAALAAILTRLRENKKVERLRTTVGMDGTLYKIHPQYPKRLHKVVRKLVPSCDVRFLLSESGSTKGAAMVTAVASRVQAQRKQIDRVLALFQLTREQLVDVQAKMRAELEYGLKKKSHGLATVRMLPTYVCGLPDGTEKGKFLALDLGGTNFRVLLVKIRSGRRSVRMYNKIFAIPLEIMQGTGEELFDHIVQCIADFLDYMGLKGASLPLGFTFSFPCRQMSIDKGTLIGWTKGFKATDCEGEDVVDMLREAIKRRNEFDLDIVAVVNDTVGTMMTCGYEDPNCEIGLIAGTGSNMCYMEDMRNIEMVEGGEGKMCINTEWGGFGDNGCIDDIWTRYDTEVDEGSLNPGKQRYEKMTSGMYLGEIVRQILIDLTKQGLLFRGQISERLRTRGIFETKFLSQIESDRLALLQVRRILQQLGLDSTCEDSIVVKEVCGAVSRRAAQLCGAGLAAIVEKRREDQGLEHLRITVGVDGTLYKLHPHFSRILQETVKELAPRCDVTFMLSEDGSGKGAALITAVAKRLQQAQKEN

[1] = target: T2, Mannose-6-phosphate isomerase (Homo sapiens, UniProt P34949); experiment: inhibitors of human PMI, primary screen, biochemical, fluorescence intensity, coupled assay (AID 1209)
T2 sequence (P34949 whole entry): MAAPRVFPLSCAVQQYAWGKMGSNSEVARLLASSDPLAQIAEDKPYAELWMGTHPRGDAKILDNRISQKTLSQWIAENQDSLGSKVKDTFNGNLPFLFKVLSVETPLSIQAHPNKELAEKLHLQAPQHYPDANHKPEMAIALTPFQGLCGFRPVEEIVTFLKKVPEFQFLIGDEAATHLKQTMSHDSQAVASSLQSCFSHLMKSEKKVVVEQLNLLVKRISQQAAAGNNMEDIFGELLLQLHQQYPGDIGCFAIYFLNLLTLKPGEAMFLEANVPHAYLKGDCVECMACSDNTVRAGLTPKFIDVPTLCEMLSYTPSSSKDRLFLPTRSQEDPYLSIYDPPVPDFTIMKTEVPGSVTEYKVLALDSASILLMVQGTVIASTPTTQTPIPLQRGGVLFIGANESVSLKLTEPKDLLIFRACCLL

[2] = target: G-protein coupled receptor 55 (Homo sapiens, UniProt Q9Y2T6); experiment: GPR55 agonists via beta-arrestin recruitment, primary screen, imaging, U2OS cells, beta-arrestin-GFP redistribution (AID 1961); assay type: functional
G-protein coupled receptor 55, sequence (Q9Y2T6 whole entry): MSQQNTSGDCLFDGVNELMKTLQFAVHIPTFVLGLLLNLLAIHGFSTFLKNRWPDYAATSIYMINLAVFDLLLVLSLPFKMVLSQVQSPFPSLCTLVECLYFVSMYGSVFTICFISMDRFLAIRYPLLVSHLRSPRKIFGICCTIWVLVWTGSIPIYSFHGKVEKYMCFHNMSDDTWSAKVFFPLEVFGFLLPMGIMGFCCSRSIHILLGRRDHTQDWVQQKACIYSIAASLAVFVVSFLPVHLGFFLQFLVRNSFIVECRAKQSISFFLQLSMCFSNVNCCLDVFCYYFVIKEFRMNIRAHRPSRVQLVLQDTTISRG

[3] = cytotoxicity toward NIH3T3 fibroblasts, dose response, counter-screen, cell-based, ATP luminescence, mouse fibroblasts (AID 2010); assay type: functional;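 further: cells exposed to compound for about 90 hours before reading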
[4] = inhibitors of intracellular T. cruzi replication, confirmation, NIH3T3 host cells, beta-gal luminescence (AID 2044); assay type: functional, cell-based;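 further: intracellular parasites grown in NIH/3T3 mouse fibroblasts as host cells; luminescent beta-galactosidase reporter signal from transgenic T. cruzi replicating inside host cells; inhibitors lower the luminescence signal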
[5] = target: T3, Apoptotic protease-activating factor 1 (Homo sapiens, UniProt O14727); assay type: functional
T3 sequence (O14727 whole entry): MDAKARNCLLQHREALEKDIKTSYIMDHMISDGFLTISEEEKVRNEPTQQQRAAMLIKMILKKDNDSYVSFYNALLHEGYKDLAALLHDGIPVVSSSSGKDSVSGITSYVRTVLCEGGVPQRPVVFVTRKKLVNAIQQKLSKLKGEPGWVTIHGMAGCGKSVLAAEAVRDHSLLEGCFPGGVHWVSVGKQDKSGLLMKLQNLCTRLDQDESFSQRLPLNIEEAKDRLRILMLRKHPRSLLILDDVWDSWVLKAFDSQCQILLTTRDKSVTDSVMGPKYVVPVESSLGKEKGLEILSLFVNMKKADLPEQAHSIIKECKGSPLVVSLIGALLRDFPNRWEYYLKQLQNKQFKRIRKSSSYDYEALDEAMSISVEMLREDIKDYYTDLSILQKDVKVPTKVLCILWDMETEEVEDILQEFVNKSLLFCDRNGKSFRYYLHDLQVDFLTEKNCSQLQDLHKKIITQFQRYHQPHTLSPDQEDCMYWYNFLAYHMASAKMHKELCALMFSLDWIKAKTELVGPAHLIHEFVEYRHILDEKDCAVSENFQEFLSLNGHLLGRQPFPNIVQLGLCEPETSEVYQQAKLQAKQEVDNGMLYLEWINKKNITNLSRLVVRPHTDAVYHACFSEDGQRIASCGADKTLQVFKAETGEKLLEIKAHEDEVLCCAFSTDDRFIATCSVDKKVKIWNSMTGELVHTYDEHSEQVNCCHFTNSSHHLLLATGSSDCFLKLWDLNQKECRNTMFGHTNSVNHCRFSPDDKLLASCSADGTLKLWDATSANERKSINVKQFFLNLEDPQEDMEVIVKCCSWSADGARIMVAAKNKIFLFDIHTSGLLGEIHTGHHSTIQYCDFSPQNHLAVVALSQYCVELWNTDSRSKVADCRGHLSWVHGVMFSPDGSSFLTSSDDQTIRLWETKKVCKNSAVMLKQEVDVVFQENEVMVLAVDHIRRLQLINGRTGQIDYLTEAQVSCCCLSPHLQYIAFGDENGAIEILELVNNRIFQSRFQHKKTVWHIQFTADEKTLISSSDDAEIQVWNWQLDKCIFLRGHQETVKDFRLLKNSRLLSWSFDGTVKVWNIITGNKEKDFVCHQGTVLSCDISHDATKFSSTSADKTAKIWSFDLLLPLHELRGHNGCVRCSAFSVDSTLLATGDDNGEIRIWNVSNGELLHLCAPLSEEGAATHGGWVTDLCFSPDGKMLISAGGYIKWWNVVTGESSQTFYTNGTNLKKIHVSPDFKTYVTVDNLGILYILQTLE

[6] = target: T2, Mannose-6-phosphate isomerase; experiment: human PMI inhibitors, high substrate, primary screen, biochemical, fluorescence intensity, high mannose 6-phosphate (AID 1220)
Estrogen receptor = target: T4, Estrogen receptor (Homo sapiens, UniProt P03372);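 further: potency for inhibiting coactivator peptide recruitment to the receptor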
T4 sequence (P03372 whole entry): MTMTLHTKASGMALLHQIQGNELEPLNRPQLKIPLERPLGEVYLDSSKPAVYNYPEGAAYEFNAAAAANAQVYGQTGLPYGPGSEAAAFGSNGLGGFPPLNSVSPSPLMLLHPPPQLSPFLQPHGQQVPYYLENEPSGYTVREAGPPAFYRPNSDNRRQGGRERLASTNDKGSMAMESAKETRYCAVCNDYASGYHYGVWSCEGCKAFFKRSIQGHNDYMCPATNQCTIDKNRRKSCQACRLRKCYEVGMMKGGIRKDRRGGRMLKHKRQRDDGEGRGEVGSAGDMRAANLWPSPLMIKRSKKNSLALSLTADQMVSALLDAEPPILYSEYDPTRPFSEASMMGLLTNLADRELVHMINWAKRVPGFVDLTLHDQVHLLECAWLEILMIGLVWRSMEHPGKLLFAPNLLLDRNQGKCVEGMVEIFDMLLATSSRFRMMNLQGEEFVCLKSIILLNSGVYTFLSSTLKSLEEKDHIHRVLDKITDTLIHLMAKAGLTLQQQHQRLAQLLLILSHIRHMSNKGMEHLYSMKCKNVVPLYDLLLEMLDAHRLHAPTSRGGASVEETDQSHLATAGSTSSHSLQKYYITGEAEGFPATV

[7] = target: T5, Alkaline phosphatase, tissue-nonspecific isozyme (Homo sapiens, UniProt P05186); experiment: human TNAP enzyme inhibitors, SAR follow-up, biochemical, luminescent, dose response (AID 1056)
T5 sequence (P05186 whole entry): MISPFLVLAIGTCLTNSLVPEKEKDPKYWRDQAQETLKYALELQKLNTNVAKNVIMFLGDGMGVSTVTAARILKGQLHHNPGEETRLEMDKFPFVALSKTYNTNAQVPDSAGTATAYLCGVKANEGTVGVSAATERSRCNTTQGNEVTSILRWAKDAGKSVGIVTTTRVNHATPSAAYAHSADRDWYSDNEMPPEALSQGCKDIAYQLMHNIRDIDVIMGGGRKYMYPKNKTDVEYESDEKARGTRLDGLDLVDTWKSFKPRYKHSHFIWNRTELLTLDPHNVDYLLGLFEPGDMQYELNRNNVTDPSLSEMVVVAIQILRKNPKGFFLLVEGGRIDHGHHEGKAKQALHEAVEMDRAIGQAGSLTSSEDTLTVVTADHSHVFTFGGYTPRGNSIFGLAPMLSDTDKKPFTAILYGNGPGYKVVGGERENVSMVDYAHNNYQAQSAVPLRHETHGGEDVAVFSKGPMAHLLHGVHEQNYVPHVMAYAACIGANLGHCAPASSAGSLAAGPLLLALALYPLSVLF

[8] = target: Glyceraldehyde-3-phosphate dehydrogenase (Homo sapiens, UniProt P04406)
Glyceraldehyde-3-phosphate dehydrogenase, sequence (P04406 whole entry): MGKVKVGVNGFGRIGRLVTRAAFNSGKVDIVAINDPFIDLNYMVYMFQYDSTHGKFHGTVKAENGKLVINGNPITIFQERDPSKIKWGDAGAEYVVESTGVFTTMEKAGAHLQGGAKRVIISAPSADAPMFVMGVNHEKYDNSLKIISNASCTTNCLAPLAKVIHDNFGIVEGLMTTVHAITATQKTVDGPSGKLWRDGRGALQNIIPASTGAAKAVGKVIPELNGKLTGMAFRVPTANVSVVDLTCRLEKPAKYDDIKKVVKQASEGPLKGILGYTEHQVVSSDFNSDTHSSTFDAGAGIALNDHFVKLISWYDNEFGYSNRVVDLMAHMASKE

[9] = target: T6, Voltage-gated N-type calcium channel alpha-1B subunit/Amyloid beta A4 precursor protein-binding family A member 1 (Homo sapiens, UniProt Q00975+Q02410); assay type: protein assay
T6 sequence (Q00975 whole entry): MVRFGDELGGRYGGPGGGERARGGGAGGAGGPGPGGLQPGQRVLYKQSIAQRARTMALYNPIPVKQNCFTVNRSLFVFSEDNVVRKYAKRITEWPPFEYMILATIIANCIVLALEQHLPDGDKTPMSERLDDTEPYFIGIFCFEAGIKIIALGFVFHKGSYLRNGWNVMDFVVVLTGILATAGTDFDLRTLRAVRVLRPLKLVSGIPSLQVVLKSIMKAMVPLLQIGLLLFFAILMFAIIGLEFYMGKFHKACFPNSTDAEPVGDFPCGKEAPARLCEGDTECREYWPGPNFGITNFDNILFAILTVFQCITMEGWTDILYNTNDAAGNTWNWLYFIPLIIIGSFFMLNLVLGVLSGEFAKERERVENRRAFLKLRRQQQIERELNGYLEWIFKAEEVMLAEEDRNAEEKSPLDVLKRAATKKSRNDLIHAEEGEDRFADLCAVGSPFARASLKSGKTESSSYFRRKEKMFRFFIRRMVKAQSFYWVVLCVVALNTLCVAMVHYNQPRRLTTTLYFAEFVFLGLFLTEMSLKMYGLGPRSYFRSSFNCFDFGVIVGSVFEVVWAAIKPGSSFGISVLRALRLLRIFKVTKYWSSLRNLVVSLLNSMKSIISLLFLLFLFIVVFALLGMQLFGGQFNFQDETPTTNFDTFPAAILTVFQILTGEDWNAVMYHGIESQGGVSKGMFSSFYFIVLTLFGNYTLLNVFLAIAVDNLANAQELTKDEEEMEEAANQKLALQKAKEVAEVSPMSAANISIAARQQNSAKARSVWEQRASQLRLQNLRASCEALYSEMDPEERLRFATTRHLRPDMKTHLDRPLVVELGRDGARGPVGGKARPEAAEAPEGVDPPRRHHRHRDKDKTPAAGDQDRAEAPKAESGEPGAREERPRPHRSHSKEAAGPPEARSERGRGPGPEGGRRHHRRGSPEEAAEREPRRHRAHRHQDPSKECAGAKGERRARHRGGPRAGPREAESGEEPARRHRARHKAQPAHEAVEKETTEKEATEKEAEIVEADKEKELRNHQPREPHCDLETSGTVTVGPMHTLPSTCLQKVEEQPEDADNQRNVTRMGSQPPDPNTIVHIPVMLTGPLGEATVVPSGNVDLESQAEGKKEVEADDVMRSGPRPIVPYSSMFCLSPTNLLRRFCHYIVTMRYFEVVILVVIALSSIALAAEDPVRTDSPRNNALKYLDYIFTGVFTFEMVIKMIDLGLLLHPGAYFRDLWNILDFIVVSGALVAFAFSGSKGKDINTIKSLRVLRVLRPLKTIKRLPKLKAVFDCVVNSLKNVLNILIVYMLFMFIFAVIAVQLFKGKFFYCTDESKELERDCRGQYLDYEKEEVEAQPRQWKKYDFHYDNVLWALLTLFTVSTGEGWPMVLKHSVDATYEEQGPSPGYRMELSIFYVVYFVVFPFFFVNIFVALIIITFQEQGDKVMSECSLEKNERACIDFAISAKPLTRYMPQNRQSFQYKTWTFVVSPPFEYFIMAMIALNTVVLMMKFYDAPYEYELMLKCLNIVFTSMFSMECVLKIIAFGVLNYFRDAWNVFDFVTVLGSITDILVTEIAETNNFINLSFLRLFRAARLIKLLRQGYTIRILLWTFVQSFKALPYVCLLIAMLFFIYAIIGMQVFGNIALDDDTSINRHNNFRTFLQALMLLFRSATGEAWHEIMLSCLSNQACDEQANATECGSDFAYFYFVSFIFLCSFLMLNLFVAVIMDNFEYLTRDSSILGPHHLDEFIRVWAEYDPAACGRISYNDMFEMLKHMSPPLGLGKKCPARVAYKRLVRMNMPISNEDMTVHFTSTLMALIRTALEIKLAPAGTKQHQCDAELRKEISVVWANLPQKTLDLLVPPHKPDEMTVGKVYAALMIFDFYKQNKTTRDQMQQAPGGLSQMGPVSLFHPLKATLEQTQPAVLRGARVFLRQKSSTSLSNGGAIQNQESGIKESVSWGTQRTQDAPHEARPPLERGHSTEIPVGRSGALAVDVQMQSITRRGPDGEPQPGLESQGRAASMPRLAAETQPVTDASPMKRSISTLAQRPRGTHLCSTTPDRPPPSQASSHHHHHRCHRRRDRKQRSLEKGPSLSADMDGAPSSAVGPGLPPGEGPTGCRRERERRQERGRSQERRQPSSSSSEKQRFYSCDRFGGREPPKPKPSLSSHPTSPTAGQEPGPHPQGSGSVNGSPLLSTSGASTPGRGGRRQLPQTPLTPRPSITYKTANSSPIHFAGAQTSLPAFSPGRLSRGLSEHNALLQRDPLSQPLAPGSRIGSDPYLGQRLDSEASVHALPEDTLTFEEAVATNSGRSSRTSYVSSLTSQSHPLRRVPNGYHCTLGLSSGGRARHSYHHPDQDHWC
T6 sequence (Q02410 whole entry): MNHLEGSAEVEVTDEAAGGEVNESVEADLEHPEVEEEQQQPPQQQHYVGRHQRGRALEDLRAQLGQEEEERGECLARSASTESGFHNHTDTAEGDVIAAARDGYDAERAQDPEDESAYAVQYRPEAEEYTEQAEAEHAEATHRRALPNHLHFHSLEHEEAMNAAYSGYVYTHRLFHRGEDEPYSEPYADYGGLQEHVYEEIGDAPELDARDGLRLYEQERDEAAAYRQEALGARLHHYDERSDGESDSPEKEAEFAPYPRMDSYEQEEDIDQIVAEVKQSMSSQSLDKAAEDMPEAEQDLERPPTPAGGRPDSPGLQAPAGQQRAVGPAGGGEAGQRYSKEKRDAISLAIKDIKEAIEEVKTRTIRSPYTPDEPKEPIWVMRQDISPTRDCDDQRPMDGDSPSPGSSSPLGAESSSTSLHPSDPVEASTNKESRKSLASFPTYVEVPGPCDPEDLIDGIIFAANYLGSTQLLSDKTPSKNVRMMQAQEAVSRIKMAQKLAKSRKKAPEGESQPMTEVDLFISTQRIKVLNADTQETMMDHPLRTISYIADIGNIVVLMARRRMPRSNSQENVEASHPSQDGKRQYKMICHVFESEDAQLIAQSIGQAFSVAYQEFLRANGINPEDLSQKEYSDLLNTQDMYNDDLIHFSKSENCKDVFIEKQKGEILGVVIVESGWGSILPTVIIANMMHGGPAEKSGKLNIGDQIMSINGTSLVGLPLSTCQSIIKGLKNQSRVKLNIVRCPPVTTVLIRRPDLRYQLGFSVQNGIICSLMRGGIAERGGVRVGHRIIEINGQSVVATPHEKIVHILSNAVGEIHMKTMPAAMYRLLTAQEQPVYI

[10] = target: T6, Voltage-gated N-type calcium channel alpha-1B subunit/Amyloid beta A4 precursor protein-binding family A member 1; assay type: protein assay; remark: listed apart in the source
Bcl-2-like protein 10 = target: T7, Bcl-2-like protein 10 (Homo sapiens, UniProt Q9HD36); experiment: displacers of TR3 peptide from Bcl-B, primary screen, selectivity assay for Bfl-1 inhibitor project, biochemical, fluorescence polarization, FITC-TR3 peptide (AID 748);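 further: fluorescence polarization from a fluorescein-labelled TR3 peptide binding purified Bcl-B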
T7 sequence (Q9HD36 whole entry): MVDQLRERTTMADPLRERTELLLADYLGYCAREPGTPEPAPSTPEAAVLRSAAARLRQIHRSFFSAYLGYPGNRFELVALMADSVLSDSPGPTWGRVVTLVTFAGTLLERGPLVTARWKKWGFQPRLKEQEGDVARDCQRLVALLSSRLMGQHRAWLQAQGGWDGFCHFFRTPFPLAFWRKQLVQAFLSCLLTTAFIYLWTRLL

[11] = target: Induced myeloid leukemia cell differentiation protein Mcl-1 (Homo sapiens, UniProt Q07820); assay type: functional
Induced myeloid leukemia cell differentiation protein Mcl-1, sequence (Q07820 whole entry): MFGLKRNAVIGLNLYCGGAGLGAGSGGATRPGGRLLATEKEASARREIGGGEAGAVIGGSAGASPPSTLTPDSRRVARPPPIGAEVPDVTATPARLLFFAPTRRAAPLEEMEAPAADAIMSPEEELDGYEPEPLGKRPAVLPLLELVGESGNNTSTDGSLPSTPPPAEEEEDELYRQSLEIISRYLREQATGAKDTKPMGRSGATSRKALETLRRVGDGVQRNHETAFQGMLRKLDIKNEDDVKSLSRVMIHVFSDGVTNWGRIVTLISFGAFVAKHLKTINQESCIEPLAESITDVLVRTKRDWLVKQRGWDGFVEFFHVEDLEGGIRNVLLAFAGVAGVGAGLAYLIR

Estrogen receptor beta = Estrogen receptor beta (Homo sapiens, UniProt Q92731);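 further: recombinant ER-beta bound to coactivator SRC1 peptide in presence of estradiol agonist; inhibitors block coactivator peptide binding and lower the FRET signal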
Estrogen receptor beta, sequence (Q92731 whole entry): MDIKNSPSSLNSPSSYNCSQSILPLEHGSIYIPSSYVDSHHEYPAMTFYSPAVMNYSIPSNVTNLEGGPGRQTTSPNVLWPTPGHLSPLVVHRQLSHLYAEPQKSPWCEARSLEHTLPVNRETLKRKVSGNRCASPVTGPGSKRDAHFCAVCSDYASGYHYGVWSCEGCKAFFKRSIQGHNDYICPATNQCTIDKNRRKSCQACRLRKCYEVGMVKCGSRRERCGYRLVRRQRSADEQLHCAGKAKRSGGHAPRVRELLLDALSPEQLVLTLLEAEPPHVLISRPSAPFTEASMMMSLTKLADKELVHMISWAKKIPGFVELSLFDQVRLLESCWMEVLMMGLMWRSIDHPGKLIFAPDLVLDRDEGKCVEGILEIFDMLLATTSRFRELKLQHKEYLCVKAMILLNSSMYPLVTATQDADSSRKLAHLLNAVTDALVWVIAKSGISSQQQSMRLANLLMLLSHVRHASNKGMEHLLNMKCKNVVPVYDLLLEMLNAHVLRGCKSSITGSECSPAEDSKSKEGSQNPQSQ

[12] = target: Intestinal-type alkaline phosphatase (Homo sapiens, UniProt P09923); experiment: Dose Response confirmation of uHTS hits from a small molecule inhibitors of human intestinal alkaline phosphatase via a luminescent assay. [Related pubchem assays (depositor defined):AID2544, AID2574]; assay type: functional

Structure (SMILES): Cc1nc2c(c(=O)c3ccccc3n2C)c(=O)n1-c1ccccc1
IC50 (Hexokinase HKDC1): 11.8 µM (active)

Structure (SMILES): CCCN(CCC)c1nc2c(C)cccn2c(=O)c1/C=C1/SC(=S)N(Cc2ccco2)C1=O
EC50 [2]: 2.97 µM (active)
EC50 [3]: > 30 µM (not active)
EC50 [4]: 0.352 µM (active)

Structure (SMILES): CCCCCn1c(NC(=O)c2ccco2)c(C(=O)OCC)c2nc3ccccc3nc21
IC50 [5]: 20.3 µM (active)
IC50 [6]: > 50 µM (not active)
IC50 [1]: > 50 µM (not active)

Structure (SMILES): O=C1[C@H]2CCCC[C@H]2C(=O)N1c1nnc(Cc2ccc(F)cc2)[nH]1
IC50 [7]: 10.2 µM (active)
IC50 [8]: > 100 µM (not active)

Structure (SMILES): COc1ccccc1Oc1ccc(S(=O)(=O)Nc2cccnc2)cc1
IC50 [7]: > 100 µM (inactive)
IC50 [8]: > 100 µM (not active)

Structure (SMILES): CC(C)c1nc2oc3c(NCCO)ncnc3c2c2c1COC(C)(C)C2
IC50 (Hexokinase HKDC1): 3.39 µM (active)

Structure (SMILES): COC(=O)c1cc2ccsc2n1CC(=O)Nc1ccc(N(C)C)cc1
EC50 [3]: > 30 µM (not active)
EC50 [4]: 4.34 µM (active)
IC50 (Estrogen receptor): 47.3 µM (not active)

Structure (SMILES): C=CCN1C(=O)/C(=C2/C(=O)N(CC(=O)O)c3ccccc32)S/C1=N/c1nccs1
IC50 (Bcl-2-like protein 10): 3.03 µM (active)
IC50 [11]: 2.78 µM (active)

Structure (SMILES): Cc1cc(Cl)c(S(=O)(=O)Nc2ccc3c(c2)OCO3)cc1OCC(N)=O
IC50 (Estrogen receptor): > 50 µM (not active)
IC50 (Estrogen receptor beta): > 50 µM (not active)

Structure (SMILES): O=C(CN1CCN(C(=O)N2CCCCC2)CC1)Nc1ccc(F)cc1
IC50 [12]: > 100 µM (inactive)

Structure (SMILES): N#CC(C#N)=NNc1ccc(S(N)(=O)=O)cc1
IC50 [9]: > 50 µM (inactive)
IC50 [10]: 16.9 µM (active)
IC50 [11]: 4.71 µM (active)

Structure (SMILES): CC(=O)Nc1ccc(SC[C@H](CC(C)C)N2CCN(CCc3ccccc3)CCC2=O)cc1
EC50 [2]: 9 µM (active)

The next lines start with the values.

IC50 [1]: 33.9 µM (active)
Structure (SMILES): Cc1snc(SCC(=O)c2ccc([N+](=O)[O-])cc2)c1C#N

IC50 (Estrogen receptor): 8.77 µM (active)
Structure (SMILES): Cc1cc(C)nc(NC(=O)CSc2nn(C)c(=S)s2)n1

IC50 [9]: > 50 µM (inactive)
IC50 [10]: 9.8 µM (active)
Structure (SMILES): CC1=C(C(=O)O)N2C(=O)C(NC(=O)c3nn(C)c(C)c3Cl)C2SC1 (stereo unspecified)

IC50 [8]: > 100 µM (not active)
Structure (SMILES): Cc1ccc2[nH]c(SCC(=O)Nc3ccc(O)c(C(=O)O)c3)nc2c1

IC50 [7]: > 100 µM (inactive)
Structure (SMILES): CSc1nnc(NC(=O)CSc2nc(C)cc(C)n2)[nH]1

IC50 (Bcl-2-like protein 10): 18.2 µM (active)
Structure (SMILES): Cc1c(Cl)cnc(NC(=O)COC(=O)C(NC(=O)c2ccco2)C(C)C)c1Cl (stereo unspecified)
